This test concerns L1210 leukemia ip in BDF1 mice, survival T/C. As to the kind of experiment: NCI In Vivo Anticancer Drug Screen. Data for tumor model L1210 Leukemia (intraperitoneal) in B6D2F1 (BDF1) mice. Conditions: endpoint: mean survival time, higher = longer survival. Put shortly:
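Transplanted-tumor mice were given test agent; controls received vehicle only. Survival readings from the two groups were divided (treated over control).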

Where [1] appears, read: dose: 100.0 mg/kg/injection, schedule: Q01DX009 (ip), vehicle: saline.
[2] abbreviates: dose: 200.0 mg/kg/injection, schedule: Q01DX009 (ip), vehicle: saline.
[3] abbreviates: dose: 400.0 mg/kg/injection, schedule: Q01DX009 (ip), vehicle: saline.
The mark [4] stands for this setting: dose: 50.0 mg/kg/injection, schedule: Q01DX009 (ip), vehicle: saline with Tween-80.
Where [5] appears, read: dose: 50.0 mg/kg/injection, schedule: Q04DX003 (ip), vehicle: saline with Tween-80.
Setting [6] is: dose: 100.0 mg/kg/injection, schedule: Q01DX009 (ip), vehicle: saline with Tween-80.
[7] abbreviates: dose: 100.0 mg/kg/injection, schedule: Q04DX003 (ip), vehicle: saline with Tween-80.
Setting [8] is: dose: 200.0 mg/kg/injection, schedule: Q04DX003 (ip), vehicle: saline with Tween-80.
The mark [9] stands for this setting: dose: 400.0 mg/kg/injection, schedule: Q04DX003 (ip), vehicle: saline with Tween-80.

“And” between values parts separate entries of the source, which are not always exact repeats. Equal values may be shown once. Toxic doses and inconclusive results are not listed.

This passage reports T/C results from PubChem BioAssay AID248 (DTP/NCI, 2004).

Take `NC(Cn1cc(N(CCCl)CCCl)c(=O)[nH]c1=O)C(=O)O` (stereo unspecified): the T/C is 114 % of control (dose: 2.5 mg/kg/injection, schedule: Q01DX009 (ip), vehicle: water); 108 % of control (dose: 4.0 mg/kg/injection, schedule: Q01DX009 (ip), vehicle: saline); 122 % of control (dose: 5.0 mg/kg/injection, schedule: Q01DX009 (ip), vehicle: water); 113 % of control (dose: 6.0 mg/kg/injection, schedule: Q01DX009 (ip), vehicle: saline); 103 % of control (dose: 8.0 mg/kg/injection, schedule: Q01DX009 (ip), vehicle: saline); 111 % of control (dose: 9.0 mg/kg/injection, schedule: Q01DX009 (ip), vehicle: saline). Further, the T/C is 120 % of control (dose: 14.0 mg/kg/injection, schedule: Q01DX009 (ip), vehicle: saline); 118 % of control (dose: 16.0 mg/kg/injection, schedule: Q01DX009 (ip), vehicle: saline); 97 % of control (dose: 19.0 mg/kg/injection, schedule: Q01DX001 (ip), vehicle: saline); 121 % of control (dose: 20.0 mg/kg/injection, schedule: Q01DX001 (ip), vehicle: saline); 115 % of control (dose: 30.0 mg/kg/injection, schedule: Q01DX001 (ip), vehicle: saline); 98 % of control (dose: 33.0 mg/kg/injection, schedule: Q01DX009 (ip), vehicle: saline). For the same molecule, the T/C runs as follows: (dose: 37.5 mg/kg/injection, schedule: Q01DX001 (ip), vehicle: saline) 114 % of control; (dose: 45.0 mg/kg/injection, schedule: Q01DX009 (ip), vehicle: saline) 101 % of control; (dose: 75.0 mg/kg/injection, schedule: Q01DX009 (ip), vehicle: saline) 103 % of control.

`CC1(C)C(C)(C)C1(Cl)Cl`: the T/C is 100 % of control under setting [1]; 112 % of control (dose: 100.0 mg/kg/injection, schedule: Q04DX003 (sc), vehicle: olive oil, sesame oil, peanut oil); 100 % of control under setting [2]; 96 % of control (dose: 200.0 mg/kg/injection, schedule: Q04DX003 (sc), vehicle: olive oil, sesame oil, peanut oil); 100 % of control under setting [3]; 107 % of control (dose: 400.0 mg/kg/injection, schedule: Q04DX003 (sc), vehicle: olive oil, sesame oil, peanut oil).

In the case of `Nc1ccc(Cl)c(Cl)c1`, the T/C reads like this: (dose: 50.0 mg/kg/injection, schedule: Q01DX001 (ip), vehicle: carboxymethylcellulose (CMC)) 98 % of control; (dose: 50.0 mg/kg/injection, schedule: Q01DX009 (ip), vehicle: alcohol) 101 % of control; under setting [4], 92 % of control; under setting [5], 104 % of control; (dose: 100.0 mg/kg/injection, schedule: Q01DX001 (ip), vehicle: carboxymethylcellulose (CMC)) 93 % of control; (dose: 100.0 mg/kg/injection, schedule: Q01DX009 (ip), vehicle: alcohol) 109 % of control. The T/C by setting is: under setting [6], 94 % of control; (dose: 100.0 mg/kg/injection, schedule: Q04DX003 (ip), vehicle: alcohol) 114 % of control; under setting [7], 104 % of control; (dose: 200.0 mg/kg/injection, schedule: Q01DX001 (ip), vehicle: carboxymethylcellulose (CMC)) 95 % of control; (dose: 200.0 mg/kg/injection, schedule: Q01DX009 (ip), vehicle: alcohol) 90 % of control; (dose: 200.0 mg/kg/injection, schedule: Q01DX009 (ip), vehicle: saline with Tween-80) 95 % of control. Besides, the T/C is 97 % of control (dose: 200.0 mg/kg/injection, schedule: Q04DX003 (ip), vehicle: alcohol) and 104 % of control under setting [8].

For the molecule `O=C1C(N2CC2)=C(N2CCCC(O)C2)C(=O)C(N2CC2)=C1N1CCCC(O)C1` (stereo unspecified), the T/C (dose: 0.12 mg/kg/injection, schedule: Q04DX003 (ip), vehicle: saline) is 103 % of control; the T/C (dose: 0.25 mg/kg/injection, schedule: Q04DX003 (ip), vehicle: saline) is 111 % of control; the T/C (dose: 0.37 mg/kg/injection, schedule: Q01DX001 (ip), vehicle: saline) was 98 % of control; the T/C (dose: 0.37 mg/kg/injection, schedule: Q01DX009 (ip), vehicle: saline) was 102 % of control and 103 % of control; the T/C (dose: 0.5 mg/kg/injection, schedule: Q04DX003 (ip), vehicle: saline) is 123 % of control; the T/C (dose: 0.75 mg/kg/injection, schedule: Q01DX001 (ip), vehicle: saline) was 108 % of control. The T/C is, setting by setting: (dose: 0.75 mg/kg/injection, schedule: Q01DX009 (ip), vehicle: saline) 96 % of control; (dose: 1.5 mg/kg/injection, schedule: Q01DX001 (ip), vehicle: saline) 105 % of control; (dose: 1.5 mg/kg/injection, schedule: Q01DX009 (ip), vehicle: saline) 124 % of control; (dose: 2.0 mg/kg/injection, schedule: Q04DX003 (ip), vehicle: saline) 168 % of control; (dose: 3.0 mg/kg/injection, schedule: Q01DX001 (ip), vehicle: saline) 102 % of control; (dose: 3.0 mg/kg/injection, schedule: Q01DX009 (ip), vehicle: saline) 159 % of control. Besides, the T/C reads like this: (dose: 4.0 mg/kg/injection, schedule: Q04DX003 (ip), vehicle: saline) 156 % of control and 184 % of control; (dose: 6.0 mg/kg/injection, schedule: Q04DX003 (ip), vehicle: saline) 204 % of control.

In the case of `O=S(=O)(c1ccccc1)N1CCCCC1`, the T/C reads like this: (dose: 100.0 mg/kg/injection, schedule: Q04DX003 (ip), vehicle: Klucel (hydroxypropylcellulose) (HPC)) 100 % of control; (dose: 200.0 mg/kg/injection, schedule: Q04DX003 (ip), vehicle: Klucel (hydroxypropylcellulose) (HPC)) 97 % of control; (dose: 400.0 mg/kg/injection, schedule: Q04DX003 (ip), vehicle: Klucel (hydroxypropylcellulose) (HPC)) 100 % of control.

In the case of `COC(=O)c1ccc(CBr)cc1`, the T/C reads like this: (dose: 25.0 mg/kg/injection, schedule: Q01DX009 (ip), vehicle: saline with Tween-80) 97 % of control; under setting [4], 90 % of control; under setting [5], 97 % of control; under setting [6], 98 % of control; under setting [7], 96 % of control.

On to `COC1CC=CC2=C1CCC1C2CC2C(=O)C1(C)CCC2O` (stereo unspecified), for which the T/C is, setting by setting: (dose: 100.0 mg/kg/injection, schedule: Q04DX003 (ip), vehicle: saline) 94 % of control; (dose: 200.0 mg/kg/injection, schedule: Q04DX003 (ip), vehicle: saline) 100 % of control; (dose: 400.0 mg/kg/injection, schedule: Q04DX003 (ip), vehicle: saline) 97 % of control.

As for `CCOC(=O)C1CCN(C(=O)c2ccccc2)c2scc(-c3ccccc3)c2C1=O` (stereo unspecified), the T/C reads like this: under setting [5], 94 % of control; under setting [7], 100 % of control; under setting [8], 92 % of control; under setting [9], 97 % of control.

Regarding `O=C(O)c1cc([N+](=O)[O-])ccc1Oc1cccc(Cl)c1`, the T/C runs as follows: (dose: 75.0 mg/kg/injection, schedule: Q01DX001 (ip), vehicle: saline) 96 % of control; (dose: 150.0 mg/kg/injection, schedule: Q01DX001 (ip), vehicle: saline) 95 % of control; (dose: 300.0 mg/kg/injection, schedule: Q01DX001 (ip), vehicle: saline) 96 % of control.

As to `CCOC(=O)C(=CN1CCCC1)C(=O)OCC`, the T/C reads like this: under setting [1], 104 % of control; under setting [7], 98 % of control; under setting [2], 109 % of control; under setting [8], 98 % of control; under setting [3], 96 % of control; under setting [9], 93 % of control.

On to `C/C=C1\CN(C)[C@H]2Cc3c([nH]c4ccccc34)[C@@H](c3cc4[nH]c5c(c4cc3OC)CCN3C[C@H]4C[C@H](CC)[C@H]3[C@@]5(C(=O)OC)C4)C[C@H]1C2C(=O)OC` (stereo partly specified), for which the T/C reads like this: (dose: 30.0 mg/kg/injection, schedule: Q01DX Z (ip), vehicle: water) 106 % of control; (dose: 45.0 mg/kg/injection, schedule: Q01DX Z (ip), vehicle: water) 100 % of control and 102 % of control; (dose: 45.0 mg/kg/injection, schedule: Q02DX Z (ip), vehicle: water) 101 % of control; (dose: 60.0 mg/kg/injection, schedule: Q01DX Z (ip), vehicle: water) 96 % of control and 101 % of control; (dose: 60.0 mg/kg/injection, schedule: Q02DX Z (ip), vehicle: water) 104 % of control; (dose: 70.0 mg/kg/injection, schedule: Q02DX Z (ip), vehicle: water) 102 % of control. For the same molecule, the T/C (dose: 75.0 mg/kg/injection, schedule: Q01DX Z (ip), vehicle: water) is 100 % of control and the T/C (dose: 90.0 mg/kg/injection, schedule: Q01DX Z (ip), vehicle: water) is 100 % of control.
